Reference: patent publication US20030220361A1, “Nicotinamide derivatives and a tiotropium salt in combination for the treatment of diseases” (priority 2002, published 2003)

Each compound was assayed on TNFα release from human peripheral blood mononuclear cells (assay: Inhibition of LPS-stimulated TNFα release from human peripheral blood mononuclear cells (TNFα screen)). Details: human PBMC, LPS stimulation, 18 hours incubation, TNFα in supernatant by ELISA.
Format: cell-based
Protocol: Venous blood is collected from healthy volunteers and the mononuclear cells purified by centrifugation through Histopaque (Ficoll) cushions. TNFα production from these cells is stimulated by addition of lipopolysaccharide. After 18 hours incubation in the presence of LPS, the cell supernatant is removed and the concentration of TNFa in the supernatant determined by ELISA. Addition of PDE4 inhibitors reduces the. amount of TNFQ produced. An IC50 is determined which is equal to the concentration of compound that gives 50% inhibition TNFα production as compared to the LPS stimulated control wells.

Going from `CC(C)(CC(=O)N[C@H]1CC[C@@H](NC(=O)c2cc(F)cnc2Oc2ccc(F)cc2)CC1)C(=O)O` [Example 129] to `O=C(O)c1ccnc(C(=O)N[C@H]2CC[C@@H](NC(=O)c3cc(F)cnc3Oc3ccc(F)cc3)CC2)c1` [Example 135], the IC50 rises from 30 nM to 74 nM (2.5-fold).

Going from `O=C(Cc1cccc(O)c1)N[C@H]1CC[C@H](NC(=O)c2cc(F)cnc2Oc2ccc(F)cc2)CC1` [Example 25] to `O=C(CCc1cccc(O)c1)N[C@H]1CC[C@H](NC(=O)c2cc(F)cnc2Oc2ccc(F)cc2)CC1` [Example 28], the IC50 rises from 8.5 nM to 217 nM (26-fold).

Compared with `Cc1ccc(C(=O)N[C@H]2CC[C@@H](NC(=O)c3cc(F)cnc3Oc3ccc(F)c(Cl)c3)CC2)c(O)c1` [Example 200], `COc1ccc(C(=O)N[C@H]2CC[C@@H](NC(=O)c3cc(F)cnc3Oc3ccc(F)c(Cl)c3)CC2)c(O)c1` [Example 156] is 2.8-fold higher in IC50: 0.05 nM for the first, 0.14 nM for the second.

Compared with `O=C(N[C@H]1CC[C@@H](NC(=O)c2cc(F)cnc2Oc2ccc(F)c(F)c2)CC1)c1cc(Cl)c(Cl)cc1O` [Example 193], `O=C(N[C@H]1CC[C@@H](NC(=O)c2cc(F)cnc2Oc2ccc(F)c(F)c2)CC1)c1ccc(Cl)cc1O` [Example 186] is 45-fold lower in IC50: 9 nM for the first, 0.2 nM for the second.

Compared with `Cc1ccc(C(=O)N[C@H]2CC[C@@H](NC(=O)c3cc(F)cnc3Oc3cccc(OC(F)(F)F)c3)CC2)c(O)c1` [Example 195, Syn-5-Fluoro-N-[4-(2-hydroxy-4-methyl-benzoylamino)-cyclohexyl]-2-(3-trifluoromethoxy-phenoxy)-nicotinamide], `Cc1ccc(C(=O)N[C@H]2CC[C@@H](NC(=O)c3cc(F)cnc3Oc3cccc(C(F)(F)F)c3)CC2)c(O)c1` [Example 199] is 1.7-fold higher in IC50: 0.4 nM for the first, 0.7 nM for the second.

Compared with `COc1cc(C(=O)O)ccc1C(=O)N[C@H]1CC[C@@H](NC(=O)c2cc(F)cnc2Oc2ccc(F)cc2)CC1` [Example 137], `COc1ccc(C(=O)N[C@H]2CC[C@@H](NC(=O)c3cc(F)cnc3Oc3ccc(F)cc3)CC2)cc1O` [Example 54] is 5.7-fold lower in IC50: 16 nM for the first, 2.8 nM for the second. The second is the more potent here.

Compared with `Cc1ccc(O)c(C(=O)N[C@H]2CC[C@H](NC(=O)c3cc(F)cnc3Oc3ccc4c(c3)OCO4)CC2)c1` [Example 8], `Cc1ccc(O)c(C(=O)N[C@H]2CC[C@@H](NC(=O)c3cc(F)cnc3Oc3ccc(F)c(F)c3)CC2)c1` [Example 174, Syn-2-(3.4-Difluoro-phenoxy)-5-fluoro-N-[4-(2-hydroxy-5-methyl-benzoylamino)-cyclohexyl]-nicotinamide] is 1600-fold lower in IC50: 22 nM for the first, 0.014 nM for the second. The second is the more potent here.

Compared with `Cc1ccc(C(=O)NC2CCC(NC(=O)c3cc(F)cnc3Oc3ccc(F)cc3)CC2)c(O)c1` (stereo not drawn) [Example 47, Syn-5-Fluoro-2-(4-fluoro-phenoxy)-N-[4-(2-hydroxy-4-methyl-benzoylamino)-cyclohexyl]-nicotinamide], `COc1ccc(C(=O)N[C@H]2CC[C@H](NC(=O)c3cc(F)cnc3Oc3ccc(F)cc3)CC2)c(O)c1` [Example 23] is 28-fold higher in IC50: 0.28 nM for the first, 7.8 nM for the second. The first is the more potent here.

First: Cc1ccc(C(=O)N[C@H]2CC[C@@H](NC(=O)c3cc(F)cnc3Oc3ccc(F)cc3C)CC2)c(O)c1 [Example 203]
Second: Cc1ccc(C(=O)NC2CCC(NC(=O)c3cc(F)cnc3Oc3cc(F)cc(F)c3)CC2)c(O)c1 (centres unmarked) [Example 217]
The IC50 of the first is 23-fold higher: 7 nM for the first, 0.3 nM for the second. The second is the more potent here.

Compared with `COc1cc(O)c(C(=O)N[C@H]2CC[C@H](NC(=O)c3cc(F)cnc3Oc3ccc(F)cc3)CC2)c(OC)c1` [Example 30], `COc1ccc(C(=O)N[C@H]2CC[C@@H](NC(=O)c3cc(F)cnc3Oc3ccc(F)c(F)c3)CC2)c(O)c1` [Example 155] is 29-fold lower in IC50: 2.6 nM for the first, 0.09 nM for the second.

`O=C(O)c1ccccc1C(=O)N1[C@@H]2CC[C@H]1C[C@H](NC(=O)c1cc(F)cnc1Oc1ccc(F)cc1)C2` [Example 100, exo-2-(3-{[5-Fluoro-2-(4-fluoro-phenoxy)-pyridine-3-carbonyl]-amino}8-aza-bicyclo[3.2.1]octane-8-carbonyl}-benzoic Acid] and `O=C(O)c1ccccc1C(=O)NC1CCC(NC(=O)c2cc(F)cnc2Oc2ccc(F)cc2)CC1` (centres unmarked) [Example 76] are within 1.5-fold of each other in IC50: 56 nM for the first, 49 nM for the second.

`Cc1ccc(C(=O)N[C@H]2CC[C@@H](NC(=O)c3cc(F)cnc3Oc3cccc(Br)c3)CC2)c(O)c1` [Example 201] and `COc1ccc(C(=O)N[C@H]2CC[C@@H](NC(=O)c3cc(F)cnc3Oc3cccc(F)c3)CC2)c(O)c1` [Example 152] are within 1.5-fold of each other in IC50: 0.3 nM for the first, 0.2 nM for the second.

Compared with `O=C(N[C@H]1CC[C@H](NC(=O)c2cc(F)cnc2Oc2ccc(F)cc2)CC1)c1cc(O)ccc1O` [Example 26], `O=C(N[C@H]1CC[C@H](NC(=O)c2cc(F)cnc2Oc2ccc(F)cc2)CC1)c1cc(Cl)ccc1O` [Example 20] is 21-fold higher in IC50: 5.4 nM for the first, 113 nM for the second.

Going from `O=C(NC1CCN(C(=O)Cc2ccc(O)cc2)CC1)c1cc(F)cnc1Oc1ccc(F)cc1` [Example 88] to `O=C(N[C@H]1C[C@H]2CC[C@@H](C1)N2C(=O)Cc1ccc(O)cc1)c1cc(F)cnc1Oc1ccc(F)cc1` [Example 92, endo-5-Fluoro-2-(4-fluoro-phenoxy)-N-{8-[2-(4-hydroxy-phenyl)-acetyl]-8-aza-bicyclo[3.2.1]oct-3-yl}-nicotinamide], the IC50 rises from 114 nM to 185 nM (1.6-fold).

`CCc1cccc(Oc2ncc(F)cc2C(=O)N[C@H]2CC[C@@H](NC(=O)c3ccc(OC)cc3O)CC2)c1` [Example 157] and `COc1cccc(Oc2ncc(F)cc2C(=O)N[C@H]2CC[C@@H](NC(=O)c3ccc(OC)cc3O)CC2)c1` [Example 197] are within 1.5-fold of each other in IC50: 2 nM for the first, 1.8 nM for the second.

Going from `O=C(Cc1ccccc1O)N[C@H]1CC[C@@H](NC(=O)c2cc(F)cnc2Oc2ccc(F)cc2)CC1` [Example 51] to `O=C(NCc1ccccc1O)NC1CCC(NC(=O)c2cc(F)cnc2Oc2ccc(F)cc2)CC1` (stereo not drawn) [Example 72, Syn-5-Fluoro-2-(4-fluoro-phenoxy)-N-{4-[3-(2-hydroxy-benzyl)-ureido]-cyclohexyl}-nicotinamide], the IC50 falls from 2.09 nM to 1.1 nM (1.9-fold). The second is the more potent here.

Going from `O=C(NC1CCC(NC(=O)C(O)C2CCCCC2)CC1)c1cc(F)cnc1Oc1ccc(F)cc1` (centres unmarked) [Example 106] to `O=C(N[C@H]1CC[C@@H](NC(=O)c2cc(F)cnc2Oc2ccc(F)cc2)CC1)c1cccc(O)c1` [Example 48], the IC50 falls from 3.6 nM to 1.66 nM (2.2-fold). The second is the more potent here.

Compared with `Cc1ccc(O)c(C(=O)N[C@H]2CC[C@@H](NC(=O)c3cc(F)cnc3Oc3cccc(OC4CCC4)c3)CC2)c1` [Example 205], `Cc1ccc(O)c(C(=O)N[C@H]2CC[C@@H](NC(=O)c3cc(F)cnc3Oc3cccc(C4CC4)c3)CC2)c1` [Example 204] is 1.8-fold lower in IC50: 0.55 nM for the first, 0.3 nM for the second.

Going from `O=C(N[C@H]1CC[C@H](NC(=O)c2c(O)cccc2F)CC1)c1cc(F)cnc1Oc1ccc(F)cc1` [Example 17] to `O=C(NC1CCC(NC(=O)c2c(O)cccc2F)CC1)c1cc(F)cnc1Oc1ccc(F)c(F)c1` (stereo not drawn) [Example 41, Anti-5-Fluoro-2-(3,4-difluoro-phenoxy)-N-[4-(2-fluoro-6-hydroxy-benzoylmino)-cyclohexyl]-Nicotinamide], the IC50 falls from 8.5 nM to 4.9 nM (1.7-fold). The second is the more potent here.

Compared with `O=C(N[C@H]1CC[C@@H](C(=O)NCc2ccccc2O)CC1)c1cccnc1Oc1ccc(F)cc1` [Example 172, Syn-2-(4-Fluoro-phenoxy)-N-[4-(2-hydroxy-benzyl-carba-moyl)-cyclohexyl]-nicotinamide], `CC(=O)N(Cc1ccccc1O)C1CCC(NC(=O)c2cc(F)cnc2Oc2ccc(F)cc2)CC1` (stereo not drawn) [Example 44, Anti-N-{4-[Acetyl-(2-hydroxybenzyl)-amino]-cyclohexyl}-5-fluoro-2-(4-fluoro-phenoxy)-nicotinamide] is 21-fold higher in IC50: 4.3 nM for the first, 91 nM for the second. The first is the more potent here.

Going from `COc1ccc(O)c(C(=O)N[C@H]2CC[C@@H](NC(=O)c3cc(F)cnc3Oc3ccc(F)c(F)c3)CC2)c1` [Example 187] to `O=C(N[C@H]1CC[C@@H](NC(=O)c2cc(F)cnc2Oc2ccc(F)c(F)c2)CC1)c1cc(CO)ccc1O` [Example 183], the IC50 rises from 0.006 nM to 0.07 nM (12-fold). The first is the more potent here.

First: Cc1cccc(C(=O)NC2CCC(NC(=O)c3cc(F)cnc3Oc3ccc(F)c(F)c3)CC2)c1O (centres unmarked) [Example 208]
Second: Cc1cccc(C(=O)NC2CCC(NC(=O)c3cc(F)cnc3Oc3ccc(Cl)c(F)c3)CC2)c1O (centres unmarked) [Example 210]
The IC50 of the first is 140-fold lower: 0.09 nM for the first, 13 nM for the second.

`O=C(NC1CCN(C(=O)c2cc(F)ccc2O)CC1)c1cc(F)cnc1Oc1ccc(F)cc1` [Example 85] and `Cc1ccc(C(=O)N2CCC(NC(=O)c3cc(F)cnc3Oc3ccc(F)cc3)CC2)c(O)c1` [Example 79, 5-Fluoro-2-(4-fluoro-phenoxy)-N-[1-(2-hydroxy-4-methyl-benzoyl)-piperidin-4-yl]-nicotinamide] are within 1.5-fold of each other in IC50: 28 nM for the first, 25.5 nM for the second.

Compared with `O=C(N[C@H]1CC[C@@H](NC(=O)c2cc(F)cnc2Oc2ccc(F)c(F)c2)CC1)c1ccccc1O` [Example 190], `O=C(N[C@H]1CC[C@H](NC(=O)c2ncccc2O)CC1)c1cc(F)cnc1Oc1ccc(F)cc1` [Example 27] is 660-fold higher in IC50: 0.06 nM for the first, 39.5 nM for the second.

First: O=C(Cc1ccc(O)c(Cl)c1)N[C@H]1CC[C@@H](NC(=O)c2cc(F)cnc2Oc2ccc(F)cc2)CC1 [Example 58]
Second: O=C(Cc1ccc(O)c(F)c1)N[C@H]1CC[C@@H](NC(=O)c2cc(F)cnc2Oc2ccc(F)cc2)CC1 [Example 56]
The IC50 of the first is 1.8-fold higher: 3.5 nM for the first, 1.9 nM for the second.

Going from `COc1ccc(C(=O)N[C@H]2CC[C@@H](NC(=O)c3cc(F)cnc3Oc3ccc4c(c3)CCC4)CC2)c(O)c1` [Example 159] to `O=C(N[C@H]1CC[C@H](NC(=O)c2cc(F)cnc2Oc2ccc3c(c2)OCO3)CC1)c1ccc(O)cc1` [Example 6], the IC50 rises from 4.6 nM to 23.5 nM (5.1-fold).

First: O=C(NC1CCN(C(=O)c2ccc3ccccc3c2O)CC1)c1cc(F)cnc1Oc1ccc(F)cc1 [Example 81]
Second: O=C(N[C@H]1CC[C@H](NC(=O)c2ccc3ccccc3c2O)CC1)c1cc(F)cnc1Oc1ccc(F)cc1 [Example 22]
The IC50 of the first is 5.2-fold lower: 30 nM for the first, 156 nM for the second.

First: O=C(NC1CCN(C(=O)CCc2ccccc2O)CC1)c1cc(F)cnc1Oc1ccc(F)cc1 [Example 91]
Second: O=C(NC1CCN(C(=O)c2cccc(O)c2)CC1)c1cc(F)cnc1Oc1ccc(F)cc1 [Example 80]
The IC50 of the first is 5-fold higher: 37 nM for the first, 7.4 nM for the second. The second is the more potent here.
